Measurements taken from US20060153785A1, “Moisturizers comprising one or more of gamma-polyglutamic acid (gamma-PGA, H form), gamma-polyglutamates and gamma-polyglutamate hydrogels for use in cosmetic or personal care products” (priority 2005, published 2006).

Tests used:
[1] = tested on: outside skin surface of the arm of a test panelist; test: Moisture retention of skin after peeling off facial moisture mask (capacitance, SHP88); type: in vivo, human (panelists); details: 5.0% moisturizer in facial moisture mask; mask film peeled off after 15 minutes; 23° C., RH 65%
Protocol: The species and proportions of the ingredients contained in the exemplified facial moisture mask formulation are listed in Table 5.
The samples of 0.2 grams from experimental example 4 were taken and evenly spread over an area of 25 cm^2 on the outside skin surface of the arm of a test panelist, and the film formation time was closely observed and recorded (see Characteristic Properties of N-Carboxybutyl Chitosan. Carbohydr. Polym. 11:307-320, 1989, Muzzarelli, R. A. A. et al.) at 23° C. under an environment of relative humidity (RH) of 65%. A group of 10 panelists participated in this test. In a separate experiment, the mask film formed after 15 minutes was peeled off, then the […] of the skin was measured at 23° C. under an environment of relative humidity of 65% with a probe of the Skin Analysis SHP88 of Courage ^+Khazaka Electronic Gmbh, Germany. The moisture retention of the skin was immediately measured at 23° C. under an environment of relative humidity of 65% with a probe of the Skin Analysis SHP88, and expressed in unit of capacitance increase ratio, %.

tyrosinase = test: Inhibition of tyrosinase activity (absorbency at 475 nm); type: biochemical; details: 1.0% sample
Protocol: Although the formation of black pigment melanin on skin is complicated, it is generally realized that tyrosine is oxidized to DOPA (Dihydroxy Phenyalanine) by the catalysis of tyrosinase from melansome of melanocyte. The DOPA is further oxidized and finally converted into colored melanin-protein complex. […] Determination of total absorbency at wavelength of 475 nm: To a 25 ml sample test tube, add 0.9 ml of 0.1M phosphate buffer solution (pH 6.8), 1 ml of γ-polyglutamate (Na^+ form) sample and 1 ml of 0.25 mg/ml tyrosine solution and mix well, then incubate at 37° C. for 10 minutes. […] Sample of the reaction solution is then taken for measuring the absorbency at 475 nm, and recorded as At. • b. Determination of the blank absorbance of tyrosinase solutuion: Replace 0.1 ml of buffer solution with tyrosinase solution, and repeat the same procedure in item (a), and record the absorbency at 475 nm as A1. • c. Replace 1 ml sample solution with buffer solution, and repeat the same procedure in item (a), and record the absorbance at 475 nm as Ab. • d. Determination of total blank absorbance of test solution: Replace 1 ml sample solution with buffer solution, and 0.1 ml of tyrosinase solution with buffer solution, and repeat the procedure in item (a), and record the absorbency at 475 nm as Ao. • e. […]

[2] = tested on: inside skin surface of a test panelist's arm; test: Water retention on skin after skin vital moisture cream (capacitance, Skin Analysis SHP88); type: in vivo, human (panelists); details: 5% moisturizer in cream

CC(O)CCO (stereo not shown) [1,3-BG, 1,3-Butyl Glycol]
Capacitance Increase Ratio [1]: 73.2%

O=c1cc(CO)occ1O [Kojic Acid]
Inhibition of Tyrosinase Activity (tyrosinase): 100.0%

CC(O)CO (stereo not shown) [Propylene Glycol]
Capacitance Increase Ratio ([2]; time 0 min): 0%
Capacitance Increase Ratio ([2]; time 5 min): 105%
Capacitance Increase Ratio ([2]; time 10 min): 57%
Capacitance Increase Ratio ([2]; time 20 min): 51%
Capacitance Increase Ratio ([2]; time 40 min): 40%
Capacitance Increase Ratio ([2]; time 80 min): 38%
Capacitance Increase Ratio ([2]; time 120 min): 36%

O=C1O[C@H]([C@@H](O)CO)C(O)=C1O [Vitamin C]
Inhibition of Tyrosinase Activity (tyrosinase): 99.4%
